Assay results from US9527827B2, “C-9 oxygen functionalized labdane derivates” (COUNCIL OF SCIENTIFIC & INDUSTRIAL RESEARCH, priority 2011, dated 2016).
Converted amounts (≈) assume the structure as drawn. “Also recorded” adds a separate entry of the source.

What was measured:
Mycobacterium smegmatis = test: Specificity test against M. smegmatis (XTT reduction microplate assay); assay type: cell-based
[1] = test system: Mycobacterium tuberculosis H37Ra; test: In vitro anti-mycobacterial activity against M. tuberculosis; assay type: cell-based; conditions: for IC50 / IC90: Mycobacterium tuberculosis, M. tuberculosis H37Ra; for IC50 / IC90 / Inhibition of / anti-tubercular activity against Mycobacterium tuberculosis (in words): in vitro
Description: All the isolated compounds and whole acetone extract were tested for their in vitro effect against Mycobacterium tuberculosis H37Ra.

Escherichia coli = test: Specificity test against E. coli (growth, absorbance at 620 nm); assay type: cell-based
M. tuberculosis H37Rv = conditions: cited from earlier work
[2] = test system: prostaglandin-induced contractions; conditions: cited from earlier work

C[C@@H]1CC[C@H]2C(C)(C)CCC[C@]2(C)[C@@]1(O)CC/C(=C/CO)CO [Compound 3]
Percent inhibition, M. smegmatis (Mycobacterium smegmatis; tested at IC90 found against M. tuberculosis, mean ± S.D. of three experiments): 30.57 ± 3.58% | IC50 [1]: 9.8 µg/mL (≈ 30.2 µM) | IC90 [1]: 46.5 µg/mL (≈ 143 µM) | Inhibition of / anti-tubercular activity against Mycobacterium tuberculosis (in words) [1]: significant inhibition; also recorded: effective | Specificity / selectivity for M. tuberculosis (in words) ([1]; versus E. coli and M. smegmatis): specifically active; also recorded: selective inhibitors | Percent inhibition, E. coli (Escherichia coli; tested at IC90 found against M. tuberculosis, 6 h incubation, mean ± S.D. of three experiments): 11.47 ± 1.65%

C=C[C@](C)(O)CC[C@@H]1[C@@]2(C)CCCC(C)(C)[C@H]2CC[C@@]1(C)O [Compound 4]
IC50 [1]: 5.95 µg/mL (≈ 19.3 µM) | IC90 [1]: 10.8 µg/mL (≈ 35.2 µM) | Inhibition of / anti-tubercular activity against Mycobacterium tuberculosis (in words) [1]: potent anti-tubercular activity; also recorded: significant inhibition; also recorded: effective

NNC(=O)c1ccncc1 [Isoniazid, reference compound]
IC90 [1]: 0.05 ± 0.003 µg/mL (≈ 0.365 µM)

CO[C@H]1/C=C/O[C@@]2(C)Oc3c(C)c(O)c4c(O)c(c(/C=N/N5CCN(C)CC5)c(O)c4c3C2=O)NC(=O)/C(C)=C\C=C\[C@H](C)[C@H](O)[C@@H](C)[C@@H](O)[C@@H](C)[C@H](OC(C)=O)[C@@H]1C [Rifampicin, reference compound]
IC90 (Mycobacterium smegmatis; Mycolicibacterium smegmatis, reference drug, value is IC90, not percent inhibition): 0.2 ± 0.03 µg/mL (≈ 0.243 µM) | IC90 (Escherichia coli; Escherichia coli, reference drug, value is IC90, not percent inhibition): 0.5 ± 0.04 µg/mL (≈ 0.608 µM)

C=CC(=C)CCC1C(=C)CC[C@H]2[C@@](C)(C(=O)O)[C@H](OC(C)=O)CC[C@]12C (some centres unmarked) [juniperexcelsic acid]
MIC (M. tuberculosis H37Rv): 14.4 µg/mL (≈ 39.9 µM)

C=C[C@]1(C)C=C2C(=O)C[C@H]3C(C)(C)[C@@H](O[C@@H]4O[C@H](CO)[C@@H](O)[C@H](O)[C@H]4O[C@@H]4O[C@H](CO[C@@H]5O[C@H](CO)[C@@H](O)[C@H](O)[C@H]5O)[C@@H](O)[C@H](O)[C@H]4O)CC[C@]3(C)[C@H]2CC1 [leucasperosides A, leucasperoside A]
Inhibition of prostaglandin-induced contractions (in words) [2]: showed inhibition

C=C[C@]1(C)C=C2C(=O)C[C@H]3C(C)(C)[C@@H](O[C@@H]4O[C@H](CO)[C@@H](O)[C@H](O)[C@H]4O[C@@H]4O[C@H](CO)[C@@H](O)[C@H](O)[C@H]4O)CC[C@]3(C)[C@H]2CC1 [leucasperosides B, leucasperoside B]
Inhibition of prostaglandin-induced contractions (in words) [2]: showed inhibition

leucasperone A
Inhibition of prostaglandin-induced contractions (in words) [2]: showed inhibition

linifolioside
Inhibition of prostaglandin-induced contractions (in words) [2]: showed inhibition
